Results: article PMC5856786, “A DHODH inhibitor increases p53 synthesis and enhances tumor cell killing by p53 degradation blockage” (Nature Communications, 2018)
Values belong to the compound of their own block, whether it stands above or below them.

How the values were obtained:
[1] = tested on: p53-dependent transcription in ARN8 human melanoma cells; test: p53-dependent transcription reporter (CPRG assay) in ARN8 cells; format: cell-based; settings: ARN8, 16 h
Method: A 20,000 compound library was purchased from ChemBridge consisting of 10,000 from the DIVERSet and 10,000 from the CombiSet libraries. […] A total of 30,000 additional compounds from the ChemBridge DIVERSet that were previously screened in a T22 cell background[12] were re-screened in ARN8 cells at 5 µM. The ChemBridge codes for these compounds can be made available upon request. All chemical synthesis is detailed in Supplementary Information with NMR spectra and reaction schemes detailed in Supplementary Figs. 13–19.

ARN8 cells [2] = test: Giemsa staining of ARN8 cultures (uridine, orotic acid, dihydroorotic acid supplementation); format: cell-based, human; settings: 72 h, 2.5 or 5 μM uridine, serum replacement medium
Method: Additionally, ARN8 cells were treated for 16 h and p53-dependent transcription was measured by CPRG assay. Values correspond to the average of three technical repeats ± SD. c Simplified description of the pyrimidine nucleotide de novo (blue) and salvage (black) pathways. d ARN8 cells were seeded in FBS supplemented DMEM with a change to serum replacement medium 24 h post seeding. […] Values correspond to the average of three technical repeats ± SD. f ARN8 cells were seeded in FBS supplemented DMEM with a change to serum replacement medium 24 h post seeding.

ARN8 xenograft = test: ARN8 subcutaneous xenograft; format: in vivo
Method: All animal xenograft experiments were approved by the Norwegian Animal Research Authority and conducted according to The European Convention for the Protection of Vertebrates Used for Scientific Purposes. […] The health status and weight of the mice were monitored daily and they were randomized in a non-blinded manner into 4 groups when tumor volumes reached 30–40 mm^3. […] Tumor volumes were measured every second day by a digital caliper using the following ellipsoid formula: Volume = π (length × width × height)/6.
To determine the efficacy of (R)-HZ05 in combination with nutlin-3a, 4 groups of NSG mice (n = 8 per group) were subcutaneously injected in the flank region with a single 100 μL injection of 2 × 10^6 ARN8 cells in a solution of PBS:Matrigel (volume ratio 3:1). Treatment was initiated when tumors reached ~50 mm^3. The maximum tolerated dose for this combination of drugs was previously determined for the strain we used. The endpoint of the experiment was determined by the tumor size ([…]) weight loss, and general condition of the mice according to The Norwegian Animal Research Authority.

CDK1/CycA2 = CDK1/CycA2 (Homo sapiens, UniProt P06493); test: biochemical; set-up: radiometric 33PanQinase protein kinase activity assay, CDK/cyclin panel, per cent remaining activity; settings: read-out: (R)-HZ00 10 µM Average (% remaining activity)
Excerpt: (§1) Supplementary Table 1. In vitro inhibition (% remaining activity) of cyclin-dependent
(§2) ProQinase GmbH (Freiburg, Germany) using a radiometric protein kinase assay
(§3) (33PanQinase® Activity Assay).
(§4) (1 picture or pasted object on this page, not shown here) 32 Supplementary Table 1. In vitro inhibition (% remaining activity) of cyclin-dependent kinases (CDKs).

CDK1/CycB1 = CDK1/CycB1 (Homo sapiens, UniProt P06493); test: biochemical; set-up: radiometric 33PanQinase protein kinase activity assay, CDK/cyclin panel, per cent remaining activity; settings: read-out: (R)-HZ00 10 µM Average (% remaining activity)
Excerpt: as §1, §2, §3, §4

CDK1/CycE1 = CDK1/CycE1 (Homo sapiens, UniProt P06493); test: biochemical; set-up: radiometric 33PanQinase protein kinase activity assay, CDK/cyclin panel, per cent remaining activity; settings: read-out: (R)-HZ00 10 µM Average (% remaining activity)
Excerpt: as §1, §2, §3, §4

CDK2/CycA2 = CDK2/CycA2 (Homo sapiens, UniProt P24941); test: biochemical; set-up: radiometric 33PanQinase protein kinase activity assay, CDK/cyclin panel, per cent remaining activity; settings: read-out: (R)-HZ00 10 µM Average (% remaining activity)
Excerpt: as §1, §2, §3, §4

CDK2/CycE1 = CDK2/CycE1 (Homo sapiens, UniProt P24941); test: biochemical; set-up: radiometric 33PanQinase protein kinase activity assay, CDK/cyclin panel, per cent remaining activity; settings: read-out: (R)-HZ00 10 µM Average (% remaining activity)
Excerpt: as §1, §2, §3, §4

CDK3/CycE1 = CDK3/CycE1 (Homo sapiens, UniProt Q00526); test: biochemical; set-up: radiometric 33PanQinase protein kinase activity assay, CDK/cyclin panel, per cent remaining activity; settings: read-out: (R)-HZ00 10 µM Average (% remaining activity)
Excerpt: as §1, §2, §3, §4

CDK4/CycD1 = CDK4/CycD1 (Homo sapiens, UniProt P11802); test: biochemical; set-up: radiometric 33PanQinase protein kinase activity assay, CDK/cyclin panel, per cent remaining activity; settings: read-out: (R)-HZ00 10 µM Average (% remaining activity)
Excerpt: as §1, §2, §3, §4

CDK4/CycD3 = CDK4/CycD3 (Homo sapiens, UniProt P11802); test: biochemical; set-up: radiometric 33PanQinase protein kinase activity assay, CDK/cyclin panel, per cent remaining activity; settings: read-out: (R)-HZ00 10 µM Average (% remaining activity)
Excerpt: as §1, §2, §3, §4

CDK5/p25NCK = target: T1, CDK5/p25NCK (Homo sapiens, UniProt Q00535); test: biochemical; set-up: radiometric 33PanQinase protein kinase activity assay, CDK/cyclin panel, per cent remaining activity; settings: read-out: (R)-HZ00 10 µM Average (% remaining activity)
T1 construct: p25
Excerpt: as §1, §2, §3, §4

CDK5/p35NCK = target: T2, CDK5/p35NCK (Homo sapiens, UniProt Q00535); test: biochemical; set-up: radiometric 33PanQinase protein kinase activity assay, CDK/cyclin panel, per cent remaining activity; settings: read-out: (R)-HZ00 10 µM Average (% remaining activity)
T2 construct: p35
Excerpt: as §1, §2, §3, §4

CDK6/CycD1 = CDK6/CycD1 (Homo sapiens, UniProt Q00534); test: biochemical; set-up: radiometric 33PanQinase protein kinase activity assay, CDK/cyclin panel, per cent remaining activity; settings: read-out: (R)-HZ00 10 µM Average (% remaining activity)
Excerpt: as §1, §2, §3, §4

CDK7/CycH/MAT1 = CDK7/CycH/MAT1 (Homo sapiens, UniProt P50613); test: biochemical; set-up: radiometric 33PanQinase protein kinase activity assay, CDK/cyclin panel, per cent remaining activity; settings: read-out: (R)-HZ00 10 µM Average (% remaining activity)
Excerpt: as §1, §2, §3, §4

CDK8/CycC = CDK8/CycC (Homo sapiens, UniProt P49336); test: biochemical; set-up: radiometric 33PanQinase protein kinase activity assay, CDK/cyclin panel, per cent remaining activity; settings: read-out: (R)-HZ00 10 µM Average (% remaining activity)
Excerpt: as §1, §2, §3, §4

CDK9/CycK = CDK9/CycK (Homo sapiens, UniProt P50750); test: biochemical; set-up: radiometric 33PanQinase protein kinase activity assay, CDK/cyclin panel, per cent remaining activity; settings: read-out: (R)-HZ00 10 µM Average (% remaining activity)
Excerpt: as §1, §2, §3, §4

CDK9/CycT1 = CDK9/CycT1 (Homo sapiens, UniProt P50750); test: biochemical; set-up: radiometric 33PanQinase protein kinase activity assay, CDK/cyclin panel, per cent remaining activity; settings: read-out: (R)-HZ00 10 µM Average (% remaining activity)
Excerpt: as §1, §2, §3, §4

PCTAIRE1/CycY = target: T3, PCTAIRE1/CycY (Homo sapiens, UniProt Q00536); test: biochemical; set-up: radiometric 33PanQinase protein kinase activity assay, CDK/cyclin panel, per cent remaining activity; settings: read-out: (R)-HZ00 10 µM Average (% remaining activity)
T3 construct: gene CDK16
Excerpt: as §1, §2, §3, §4

recombinant human DHODH [3] = target: T4, recombinant human DHODH (Homo sapiens, UniProt Q02127); test: Kinetic DHODH enzyme assay (3,4-dimethoxy-5-methyl-p-benzoquinone, DCIP); format: biochemical; set-up: made in house; settings: Fig. 5a; average of three independent repeats ± SD
Method: In Fig. 5a enzyme assays were optimized and performed with 6 nM recombinant human DHODH prepared as described. The reaction mixture for these kinetic assays consisted of 1 mM DL-dihydroorotic acid, 100 µM 3,4-dimethoxy-5-methyl-p-benzoquinone (#D9150, Sigma-Aldrich), and 100 µM DCIP in enzyme buffer. A stock solution of 20 mM DCIP was prepared in enzyme buffer and filtered through filter paper (20–25 μm pore size) just before use. Loss in absorbance by DCIP was measured at 595 nm at RT in a stepped time course (8 × 2 min, 8 × 3 min, 6 × 5 min). […] Therefore, for each concentration of inhibitor tested, a value for DHODH’s Vmax was estimated by linear regression within this time frame.
Target sequence in this assay (Q02127 29-395 limits assumed): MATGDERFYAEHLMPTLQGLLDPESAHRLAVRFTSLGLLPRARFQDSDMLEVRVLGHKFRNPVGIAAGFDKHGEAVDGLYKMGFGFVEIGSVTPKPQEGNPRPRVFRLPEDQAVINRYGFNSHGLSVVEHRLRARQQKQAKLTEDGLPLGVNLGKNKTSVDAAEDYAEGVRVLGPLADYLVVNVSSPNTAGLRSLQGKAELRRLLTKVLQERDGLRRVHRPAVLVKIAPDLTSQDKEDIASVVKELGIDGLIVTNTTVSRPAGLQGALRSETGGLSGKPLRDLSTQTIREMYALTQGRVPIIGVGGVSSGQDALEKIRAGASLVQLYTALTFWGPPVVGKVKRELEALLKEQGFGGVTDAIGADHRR

ARN8 cells [4] = test: SRB growth/viability assay, ARN8; format: cell-based, human; settings: ARN8; Fig. 4e
Method: SRB assays measuring protein content were performed in 96-well plates as previously described.

recombinant human DHODH [5] = target: T4, recombinant human DHODH; test: Endpoint DHODH enzyme assay (coenzyme Q10, DCIP); format: biochemical; set-up: purchased Prospecbio ENZ-642; settings: compound at 10 µM; Supplementary Table 5, 20,000 compound library
Method: In Supplementary Tables 5 and 6, endpoint assays were performed with 10 nM recombinant human DHODH (#ENZ-642, Prospecbio). The reaction mixture consisted of 624.6 µM DL-dihydroorotic acid, 66.4 µM coenzyme Q10, 66.4 µM 2,6-dichlorophenolindophenol sodium salt (DCIP) (all reagents purchased from Sigma-Aldrich) in enzyme buffer (50 mM Tris-HCl, pH 8.0, 0.1% Triton X-100, 150 mM KCl). Loss in absorbance by DCIP was measured at 595 nm after incubation at RT for 60 min.
Target sequence in this assay (Q02127 31-395 limits assumed): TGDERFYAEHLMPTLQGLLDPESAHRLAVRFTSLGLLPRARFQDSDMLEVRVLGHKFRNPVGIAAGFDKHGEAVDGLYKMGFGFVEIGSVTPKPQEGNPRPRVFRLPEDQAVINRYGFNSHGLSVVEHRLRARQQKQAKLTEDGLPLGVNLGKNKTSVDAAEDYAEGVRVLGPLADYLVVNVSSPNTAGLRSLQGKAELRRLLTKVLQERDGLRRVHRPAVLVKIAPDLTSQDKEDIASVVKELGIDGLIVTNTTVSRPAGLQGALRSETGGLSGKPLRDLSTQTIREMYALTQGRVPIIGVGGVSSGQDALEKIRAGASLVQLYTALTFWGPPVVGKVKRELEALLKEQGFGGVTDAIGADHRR

CDK7/CycH/MAT1, sequence (P50613 whole entry): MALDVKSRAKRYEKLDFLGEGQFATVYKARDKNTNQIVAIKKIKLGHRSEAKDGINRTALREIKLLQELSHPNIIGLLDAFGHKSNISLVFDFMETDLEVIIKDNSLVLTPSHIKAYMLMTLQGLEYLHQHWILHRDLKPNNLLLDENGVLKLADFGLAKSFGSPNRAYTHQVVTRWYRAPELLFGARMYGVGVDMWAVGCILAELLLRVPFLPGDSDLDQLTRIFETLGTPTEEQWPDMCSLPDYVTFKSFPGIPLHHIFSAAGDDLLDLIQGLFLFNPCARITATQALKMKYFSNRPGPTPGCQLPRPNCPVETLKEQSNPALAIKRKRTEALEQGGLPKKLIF
CDK7/CycH/MAT1, sequence (P51946 whole entry partner): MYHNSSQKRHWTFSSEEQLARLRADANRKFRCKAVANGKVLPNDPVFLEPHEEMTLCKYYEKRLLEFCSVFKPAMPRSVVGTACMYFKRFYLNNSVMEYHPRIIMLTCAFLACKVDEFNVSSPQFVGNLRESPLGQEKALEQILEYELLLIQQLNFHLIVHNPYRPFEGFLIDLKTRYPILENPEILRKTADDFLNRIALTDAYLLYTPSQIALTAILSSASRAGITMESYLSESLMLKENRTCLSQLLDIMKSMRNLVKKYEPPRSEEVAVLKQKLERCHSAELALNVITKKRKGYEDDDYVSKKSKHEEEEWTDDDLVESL
CDK7/CycH/MAT1, sequence (P51948 whole entry partner): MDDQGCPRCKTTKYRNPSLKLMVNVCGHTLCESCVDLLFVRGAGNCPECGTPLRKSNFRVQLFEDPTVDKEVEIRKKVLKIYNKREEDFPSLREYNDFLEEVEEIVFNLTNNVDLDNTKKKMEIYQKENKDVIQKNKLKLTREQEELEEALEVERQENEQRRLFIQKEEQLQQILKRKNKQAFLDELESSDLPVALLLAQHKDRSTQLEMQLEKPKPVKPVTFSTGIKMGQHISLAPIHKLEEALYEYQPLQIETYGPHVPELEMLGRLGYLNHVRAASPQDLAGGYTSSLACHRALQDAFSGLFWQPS
CDK4/CycD1, sequence (P11802 whole entry): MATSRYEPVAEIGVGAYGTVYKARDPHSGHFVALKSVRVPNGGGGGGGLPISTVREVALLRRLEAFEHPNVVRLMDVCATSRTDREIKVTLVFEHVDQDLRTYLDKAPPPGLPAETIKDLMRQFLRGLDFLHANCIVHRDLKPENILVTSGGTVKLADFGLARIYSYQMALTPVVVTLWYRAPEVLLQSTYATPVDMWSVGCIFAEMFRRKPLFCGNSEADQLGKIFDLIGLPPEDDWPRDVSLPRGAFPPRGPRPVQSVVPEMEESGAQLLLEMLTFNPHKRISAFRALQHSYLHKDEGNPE
CDK4/CycD1, sequence (P24385 whole entry partner): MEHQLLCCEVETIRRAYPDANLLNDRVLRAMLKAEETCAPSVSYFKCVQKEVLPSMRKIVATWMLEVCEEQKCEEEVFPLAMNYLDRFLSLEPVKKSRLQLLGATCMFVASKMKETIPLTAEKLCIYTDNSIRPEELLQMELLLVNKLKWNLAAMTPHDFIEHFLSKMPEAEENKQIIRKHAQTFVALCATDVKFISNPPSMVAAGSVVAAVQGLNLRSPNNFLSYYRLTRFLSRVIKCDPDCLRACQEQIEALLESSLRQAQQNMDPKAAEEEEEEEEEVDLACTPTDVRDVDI
CDK4/CycD3, sequence (P11802 whole entry): as the sequence (P11802 whole entry) above
CDK4/CycD3, sequence (P30281 whole entry partner): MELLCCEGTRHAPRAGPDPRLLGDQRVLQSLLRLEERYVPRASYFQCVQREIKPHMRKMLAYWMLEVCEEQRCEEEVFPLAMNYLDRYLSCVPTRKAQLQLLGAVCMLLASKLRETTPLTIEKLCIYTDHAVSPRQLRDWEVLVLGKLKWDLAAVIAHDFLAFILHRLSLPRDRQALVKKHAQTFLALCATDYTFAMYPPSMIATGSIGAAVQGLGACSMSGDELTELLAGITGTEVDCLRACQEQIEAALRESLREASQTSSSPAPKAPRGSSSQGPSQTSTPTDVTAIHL
T2 sequence (Q00535 whole entry): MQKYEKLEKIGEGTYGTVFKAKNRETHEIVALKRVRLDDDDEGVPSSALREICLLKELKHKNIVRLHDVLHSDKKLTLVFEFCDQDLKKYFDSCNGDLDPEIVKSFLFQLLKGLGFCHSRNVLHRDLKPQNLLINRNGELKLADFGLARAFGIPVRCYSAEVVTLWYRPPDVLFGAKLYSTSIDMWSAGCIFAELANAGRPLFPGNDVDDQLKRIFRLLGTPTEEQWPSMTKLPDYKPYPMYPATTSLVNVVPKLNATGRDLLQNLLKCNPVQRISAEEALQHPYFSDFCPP
T2 sequence (Q15078 whole entry partner): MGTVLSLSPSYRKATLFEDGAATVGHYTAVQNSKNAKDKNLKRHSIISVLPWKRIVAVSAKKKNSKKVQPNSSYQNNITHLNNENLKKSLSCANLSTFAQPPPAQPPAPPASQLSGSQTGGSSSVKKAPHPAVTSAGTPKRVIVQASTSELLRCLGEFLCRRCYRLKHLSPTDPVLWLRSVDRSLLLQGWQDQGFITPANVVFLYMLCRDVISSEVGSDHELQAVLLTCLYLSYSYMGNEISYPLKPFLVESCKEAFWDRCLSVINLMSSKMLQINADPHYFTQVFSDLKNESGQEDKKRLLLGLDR
T1 sequence (Q00535 whole entry): as the sequence (Q00535 whole entry) above
T1 sequence (Q15078 whole entry partner): as the sequence (Q15078 whole entry partner) above
CDK3/CycE1, sequence (Q00526 whole entry): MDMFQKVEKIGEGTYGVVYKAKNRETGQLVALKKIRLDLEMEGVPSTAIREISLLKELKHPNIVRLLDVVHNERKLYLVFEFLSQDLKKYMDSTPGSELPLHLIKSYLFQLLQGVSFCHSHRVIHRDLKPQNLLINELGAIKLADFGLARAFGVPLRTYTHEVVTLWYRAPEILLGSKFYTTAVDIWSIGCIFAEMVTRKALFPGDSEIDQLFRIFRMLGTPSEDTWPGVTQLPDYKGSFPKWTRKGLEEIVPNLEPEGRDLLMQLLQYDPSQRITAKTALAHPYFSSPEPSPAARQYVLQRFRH
CDK3/CycE1, sequence (P24864 whole entry partner): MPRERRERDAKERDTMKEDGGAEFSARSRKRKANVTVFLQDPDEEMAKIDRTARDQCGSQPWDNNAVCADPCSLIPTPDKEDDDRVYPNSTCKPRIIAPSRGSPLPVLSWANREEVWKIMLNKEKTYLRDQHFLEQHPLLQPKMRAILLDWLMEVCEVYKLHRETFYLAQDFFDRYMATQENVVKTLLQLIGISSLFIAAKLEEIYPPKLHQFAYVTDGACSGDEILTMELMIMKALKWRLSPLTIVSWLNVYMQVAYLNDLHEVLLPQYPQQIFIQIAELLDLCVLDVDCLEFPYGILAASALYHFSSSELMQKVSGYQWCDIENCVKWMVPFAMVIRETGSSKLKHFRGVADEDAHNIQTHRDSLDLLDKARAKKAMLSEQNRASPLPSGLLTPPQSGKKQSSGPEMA
CDK1/CycE1, sequence (P06493 whole entry): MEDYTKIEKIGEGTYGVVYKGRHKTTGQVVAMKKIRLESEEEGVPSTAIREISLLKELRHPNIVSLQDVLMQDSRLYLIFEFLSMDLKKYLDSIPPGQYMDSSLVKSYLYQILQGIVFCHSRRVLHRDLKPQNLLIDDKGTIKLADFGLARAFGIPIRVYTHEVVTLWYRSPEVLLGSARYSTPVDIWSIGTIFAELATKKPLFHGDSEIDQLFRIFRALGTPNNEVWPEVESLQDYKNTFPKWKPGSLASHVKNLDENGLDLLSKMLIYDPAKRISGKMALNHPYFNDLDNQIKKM
CDK1/CycE1, sequence (P24864 whole entry partner): as the sequence (P24864 whole entry partner) above

SMILES: O=C(N[C@@H]1CCCc2c1cnn2-c1ccccc1F)c1ccccn1 [(R)-HZ00]
p53 reporter activity, (R)- versus (S)-enantiomer [1]: significantly higher p53 reporter activity
tumor cell growth at physiological uridine levels (ARN8 cells [2]): markedly reduce tumor cell growth
xenograft tumor growth, combination with nutlin-3 (ARN8 xenograft; (R)-HZ00 150 mg kg−1 i.p. q.d. + nutlin-3 100 mg kg−1 p.o. q.d.): significant ARN8 xenograft tumor growth inhibition
toxicity in xenograft study (ARN8 xenograft; mice, (R)-HZ00 150 mg kg−1 i.p. q.d., nutlin-3 100 mg kg−1 p.o. q.d.): not toxic
remaining activity at 10 µM (CDK1/CycA2): 90.9%
remaining activity at 10 µM (CDK1/CycB1): 100%
remaining activity at 10 µM (CDK1/CycE1): 103%
remaining activity at 10 µM (CDK2/CycA2): 101%
remaining activity at 10 µM (CDK2/CycE1): 96.8%
remaining activity at 10 µM (CDK3/CycE1): 90.8%
remaining activity at 10 µM (CDK4/CycD1): 104%
remaining activity at 10 µM (CDK4/CycD3): 98.3%
remaining activity at 10 µM (CDK5/p25NCK): 113%
remaining activity at 10 µM (CDK5/p35NCK): 101%
remaining activity at 10 µM (CDK6/CycD1): 97.1%
remaining activity at 10 µM (CDK7/CycH/MAT1): 105%
remaining activity at 10 µM (CDK8/CycC): 92.4%
remaining activity at 10 µM (CDK9/CycK): 95.9%
remaining activity at 10 µM (CDK9/CycT1): 107%
remaining activity at 10 µM (PCTAIRE1/CycY): 95.4%

IC50 (recombinant human DHODH [3]): 6.7 ± 0.67 µM
SMILES: O=C(N[C@H]1CCCc2c1cnn2-c1ccccc1F)c1onc2c1CCCC2 [(S)-HZ05]

IC50 (recombinant human DHODH [3]): 0.289 ± 0.046 µM
SMILES: O=C(NC1CCCc2c1cnn2-c1ccc(F)cc1F)c1onc2c1CCCC2 (stereo not drawn) [HZ02]

IC50 (recombinant human DHODH [3]): > 10 µM
SMILES: Cc1ccc(-n2ncc3c2CC(C)(C)CC3NC(=O)c2ccccn2)cc1 (stereo not drawn) [HZ25]

SMILES: Cc1c(-c2ccc(-c3ccccc3F)cc2)nc2ccc(F)cc2c1C(=O)O [brequinar, reference compound]
effects on ARN8 growth and p53-dependent transcription ± uridine compared with HZ00 (ARN8 cells [4]): phenocopied the effects of HZ00

remaining activity at 10 µM (recombinant human DHODH [5]): 86.3%
SMILES: Cc1ccc(-c2nc(CN3CCCCC3c3nccs3)c(C)o2)o1 (stereo not drawn) [compound 47561416, 1-{[5-methyl-2-(5-methyl-2-furyl)-1,3-oxazol-4-yl]methyl}-2-(1,3-thiazol-2-yl)piperidine]

remaining DHODH activity (%) Average (recombinant human DHODH [5]): 10.68%
SMILES: COc1ccc(-c2nc(CN3CCCC3c3ccccc3OC)c(C)o2)cc1C (stereo not drawn) [compound 47870602, 2-(4-methoxy-3-methylphenyl)-4-{[2-(2-methoxyphenyl)-1-pyrrolidinyl]methyl}-5-methyl-1,3-oxazole]

remaining activity at 10 µM (recombinant human DHODH [5]): -5.48%
SMILES: CC(C)c1nc(C(=O)N2CCC3(CCCN(CCc4ccccc4)C3)C2)cs1 (stereo not drawn) [compound 51157786, 2-[(2-isopropyl-1,3-thiazol-4-yl)carbonyl]-7-(2-phenylethyl)-2,7-diazaspiro[4.5]decane]
